Active and inactive are the calls of the source. No cut-off for these calls is given here. Starred links: 1 amine or outer side, 2 acyl side, 3 side chain; linkers in the order of their positions; H or OH if unused. Positions of bridges follow the written chain, without caps; N, C: chain ends. Non-standard residues stand in square brackets, D forms with d. Residues, ends and D or L forms follow the SMILES beside them. *: point of attachment. hTyr(3S-OH,4S-OH,3'-OSO3H) = N[C@H](C(=O)O)[C@H](O)[C@@H](O)c1ccc(O)c(OS(=O)(=O)O)c1; Orn(4R-OH,5R-OH) = O=C([C@H](C[C@@H](O)[C@@H](O)N[*:3])N[*:1])[*:2]; Pro(3S-OH,4S-Me) = C[C@H]1CN[C@H](C(=O)O)[C@H]1O; X1 = CCCCCOc1ccc(-c2cc(-c3ccc(C(=O)*)cc3)no2)cc1; Gln(3R-OH) = NC(=O)C[C@@H](O)[C@H](N)C(=O)O; Hyp = O=C(O)[C@@H]1C[C@@H](O)CN1
Assays:
[1] = target: T1, NEDD8/NEDD8-conjugating enzyme Ubc12 (Homo sapiens, UniProt P61081+Q15843); experiment: Inhibition of GST-tagged recombinant human UBE2M/His-tagged human NEDD8 interaction by HTRF assay; type: protein-complex assay
Cullin-1 (Homo sapiens) [2] = target: Cullin-1 (Homo sapiens) (UniProt Q13616); experiment: Inhibition of CULLIN-1 neddylation in human AGS cells assessed as increase in p21 level incubated for 24 hrs by immunoblot analysis; type: cell-based; details: dose 5-40 µM
AGS [3] = experiment: Inhibition of cell migration of human AGS cells at 50 uM incubated for 48 hrs by wound healing assay; type: functional, cell-based
AGS [4] = experiment: Induction of cell cycle arrest at G2/M phase in human AGS cells at 20 to 40 uM incubated for 24 hrs by PI staining based FACS analysis; type: functional; details: dose 20-40 µM
AGS [5] = experiment: Induction of apoptosis in human AGS cells assessed as decrease in PARP-1 level at 5 to 40 uM incubated for 24 hrs by immunoblot analysis; type: functional, cell-based; details: dose 5-40 µM
AGS [6] = experiment: Inhibition of global CULLIN neddylation in human AGS cells incubated for 24 hrs by immunoblot analysis; type: cell-based; details: dose 5-40 µM
[7] = target: T1, NEDD8/NEDD8-conjugating enzyme Ubc12; experiment: Inhibition of GST-tagged recombinant human UBE2M/His-tagged human NEDD8 interaction by HTRF assay relative to control; type: protein-complex assay
AGS [8] = experiment: Inhibition of cell migration of human AGS cells at 50 uM incubated for 48 hrs by transwell assay; type: functional, cell-based
[9] = target: T2, NEDD8-conjugating enzyme Ubc12 (Homo sapiens) (UniProt P61081); experiment: Binding affinity to GST-tagged recombinant human UBE2M assessed as protein stability at 65 degreeC incubated for 24 hrs by CETSA; details: AGS
T2 sequence (whole entry): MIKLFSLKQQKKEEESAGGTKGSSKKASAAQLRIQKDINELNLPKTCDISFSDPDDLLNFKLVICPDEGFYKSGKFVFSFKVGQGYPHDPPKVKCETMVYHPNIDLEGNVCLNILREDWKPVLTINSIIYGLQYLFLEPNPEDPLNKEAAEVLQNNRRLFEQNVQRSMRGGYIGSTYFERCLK

AGS [10] = experiment: Inhibition of cell migration of human AGS cells assessed as increase in E-CADHERIN level at 5 to 40 uM incubated for 48 hrs by Western blot analysis; type: functional, cell-based; details: dose 5-40 µM
AGS [11] = experiment: Inhibition of cell migration of human AGS cells assessed as decrease in VIMENTIN level at 5 to 40 uM incubated for 48 hrs by Western blot analysis; type: functional, cell-based; details: dose 5-40 µM
AGS [12] = experiment: Induction of apoptosis in human AGS cells assessed as increase in NOXA level at 5 to 40 uM incubated for 24 hrs by immunoblot analysis; type: functional, cell-based; details: dose 5-40 µM
AGS [13] = experiment: Induction of cell cycle arrest in human AGS cells assessed as decrease in cell population at S phase at 20 to 40 uM incubated for 24 hrs by PI staining based FACS analysis; type: functional; details: dose 20-40 µM
Homo sapiens = organism: Homo sapiens; experiment: Inhibition of neddylation of His-tagged recombinant human NAE expressed in Escherichia coli (BL21) at 6.25 to 100 uM by Western blot analysis; details: dose 6.25-100 µM
AGS [14] = experiment: Inhibition of colony formation of human AGS cells incubated for 10 days with replacement of drug containing medium every 3 days by crystal violet staining based analysis; type: functional, cell-based; details: dose 10-40 µM, time 10.0 day
AGS [15] = experiment: Inhibition of cell migration of human AGS cells assessed as increase in N-CADHERIN level at 5 to 40 uM incubated for 48 hrs by Western blot analysis; type: functional, cell-based; details: dose 5-40 µM
[16] = target: T2, NEDD8-conjugating enzyme Ubc12 (Homo sapiens); experiment: Inhibition of neddylation of GST-tagged recombinant human UBE2M expressed in Escherichia coli (BL21) by Western blot analysis; details: dose 6.25-100 µM
AGS [17] = experiment: Induction of apoptosis in human AGS cells assessed as increase in cleaved caspase-3 level at 5 to 40 uM incubated for 24 hrs by immunoblot analysis; type: functional, cell-based; details: dose 5-40 µM
[18] = target: T2, NEDD8-conjugating enzyme Ubc12 (Homo sapiens); experiment: Binding affinity to GST-tagged recombinant human UBE2M assessed as protein stability at 60 degreeC preincubated for 10 mins followed by heat exposure by TSA; details: dose 1.25-20 µM
[19] = target: T3, NEDD8-conjugating enzyme Ubc12 (Homo sapiens, UniProt P61081); experiment: Inhibition of UBE2M neddylation in human AGS cells incubated for 3 days by immunoblot analysis; type: cell-based
T3 sequence (P61081 whole entry): T2 sequence (whole entry)

AGS [20] = experiment: Inhibition of cell migration of human AGS cells assessed as decrease in SNAIL level at 5 to 40 uM incubated for 48 hrs by Western blot analysis; type: functional, cell-based; details: dose 5-40 µM
AGS [21] = experiment: Induction of cell cycle arrest at G2 phase in human AGS cells at 20 to 40 uM incubated for 24 hrs by PI staining based FACS analysis; type: functional; details: dose 20-40 µM
[22] = target: T2, NEDD8-conjugating enzyme Ubc12 (Homo sapiens); experiment: Inhibition of […] conjugation to GST-tagged recombinant human UBE2M by pull-down based immunoprecipitation method
[23] = target: T2, NEDD8-conjugating enzyme Ubc12 (Homo sapiens); experiment: Binding affinity to GST-tagged recombinant human UBE2M assessed as protein stability at 55 to 60 degreeC incubated for 24 hrs by CETSA; type: cell-based; details: AGS
[24] = target: T2, NEDD8-conjugating enzyme Ubc12 (Homo sapiens); experiment: Binding affinity to GST-tagged recombinant human UBE2M assessed as protein stability upto 70 degreeC at 20 uM preincubated for 10 mins followed by heat exposure by TSA
AGS [25] = experiment: Induction of DNA damage in human AGS cells assessed as increase in phosphorylated H2Ax expression at 50 uM incubated for 48 hrs by immunofluorescence analysis; type: functional, cell-based
Cullin-1 (Homo sapiens) [26] = target: Cullin-1 (Homo sapiens) (UniProt Q13616); experiment: Inhibition of CULLIN-1 neddylation in human AGS cells assessed as increase in p27 level at 5 to 40 uM incubated for 24 hrs by immunoblot analysis; type: cell-based; details: dose 5-40 µM
AGS [27] = experiment: Inhibition of cell viability in human AGS cells incubated for 72 to 120 hrs by MTT assay; type: functional, cell-based; details: dose 5-80 µM, time 72-120 hrs
Cullin-1 (Homo sapiens) [28] = target: Cullin-1 (Homo sapiens) (UniProt Q13616); experiment: Inhibition of CULLIN-1 neddylation in human AGS cells incubated for 24 hrs by immunoblot analysis; type: cell-based; details: dose 5-40 µM
[29] = Inhibition of His-tagged recombinant human NAE expressed in Escherichia coli (BL21) by HTRF assay

Chain of Cullin-1 (Homo sapiens) (Q13616 whole entry): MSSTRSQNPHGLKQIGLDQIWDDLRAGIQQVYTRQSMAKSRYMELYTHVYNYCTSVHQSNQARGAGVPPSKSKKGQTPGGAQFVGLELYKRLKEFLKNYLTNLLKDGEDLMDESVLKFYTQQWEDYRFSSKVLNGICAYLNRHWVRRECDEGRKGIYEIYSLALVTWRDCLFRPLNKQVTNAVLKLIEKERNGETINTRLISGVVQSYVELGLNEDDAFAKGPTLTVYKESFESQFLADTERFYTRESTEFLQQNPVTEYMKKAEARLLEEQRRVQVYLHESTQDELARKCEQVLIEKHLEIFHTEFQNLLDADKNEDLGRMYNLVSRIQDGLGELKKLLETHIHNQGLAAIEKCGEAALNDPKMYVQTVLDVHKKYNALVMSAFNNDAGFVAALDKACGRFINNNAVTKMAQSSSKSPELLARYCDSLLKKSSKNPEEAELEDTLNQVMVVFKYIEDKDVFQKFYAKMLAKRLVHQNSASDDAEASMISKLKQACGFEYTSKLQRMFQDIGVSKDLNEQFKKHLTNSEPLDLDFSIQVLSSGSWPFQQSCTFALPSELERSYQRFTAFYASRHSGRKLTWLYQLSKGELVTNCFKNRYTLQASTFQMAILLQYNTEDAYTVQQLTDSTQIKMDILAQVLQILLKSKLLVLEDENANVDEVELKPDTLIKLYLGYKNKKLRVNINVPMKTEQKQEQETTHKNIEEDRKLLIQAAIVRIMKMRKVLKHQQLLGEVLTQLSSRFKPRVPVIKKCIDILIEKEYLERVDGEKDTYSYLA
T1 sequence (Q15843 whole entry, one chain of several): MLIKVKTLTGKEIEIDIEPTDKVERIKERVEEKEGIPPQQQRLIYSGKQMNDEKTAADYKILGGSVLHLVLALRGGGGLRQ

CCCCCOc1ccc(-c2cc(-c3ccc(C(=O)N[C@H]4C[C@@H](O)[C@@H](O)NC(=O)[C@@H]5[C@@H](O)[C@@H](C)CN5C(=O)[C@H]([C@H](O)CC(N)=O)NC(=O)[C@H]([C@H](O)[C@@H](O)c5ccc(O)c(OS(=O)(=O)O)c5)NC(=O)[C@@H]5C[C@@H](O)CN5C(=O)[C@H]([C@@H](C)O)NC4=O)cc3)no2)cc1 [MICAFUNGIN] (X1-[Orn(4R-OH,5R-OH)]T[Hyp][hTyr(3S-OH,4S-OH,3'-OSO3H)][Gln(3R-OH)][Pro(3S-OH,4S-Me)]; lactam 1-C)
IC50 [1]: 17 µM
inhibition (Cullin-1 (Homo sapiens) [2]): Dose-Dependent Effect
inhibition (AGS [3]): Active
Activity (AGS [4]): Active
Activity (AGS [5]): Active
inhibition (AGS [6]): Active
inhibition [7]: 66.2%
inhibition (AGS [8]): Active
Activity [9]: inactive
inhibition (AGS [10]): Active
inhibition (AGS [11]): Active
Activity (AGS [12]): Active
Activity (AGS [13]): Active
inhibition (Homo sapiens): inactive
inhibition (AGS [14]): Active
inhibition (AGS [15]): Active
inhibition [16]: Dose-Dependent Effect
Activity (AGS [17]): Active
Activity [18]: Dose-Dependent Effect
IC50 [19]: 39.9 µM
inhibition (AGS [20]): Active
Activity (AGS [21]): Active
inhibition [22]: Active
Activity [23]: Active
Activity [24]: Active
Activity (AGS [25]): Active
inhibition (Cullin-1 (Homo sapiens) [26]): Active
inhibition (AGS [27]): Active
inhibition (Cullin-1 (Homo sapiens) [28]): Active

CN(C)[C@@H]1C(O)=C(C(N)=O)C(=O)[C@@]2(O)C(O)=C3C(=O)c4c(O)cccc4[C@@](C)(O)[C@H]3[C@H](O)[C@@H]12
inhibition [7]: 64.8%

NS(=O)(=O)OC[C@@H]1C[C@@H](n2ccc3c(N[C@H]4CCc5ccccc54)ncnc32)C[C@@H]1O [PEVONEDISTAT]
IC50 [29]: 0.0058 µM

Cc1cccc(N(C)C(=S)Oc2ccc3ccccc3c2)c1
inhibition [7]: 55.2%

C[C@H]1c2cccc(O)c2C(=O)C2=C(O)[C@]3(O)C(=O)C(C(N)=O)=C(O)[C@@H](N(C)C)[C@@H]3[C@@H](O)[C@@H]21
inhibition [7]: 78.1%

COc1cccc2c1C(=O)c1c(O)c3c(c(O)c1C2=O)C[C@@](O)(C(=O)CO)C[C@@H]3O[C@H]1C[C@H](N)[C@H](O)[C@H](C)O1
inhibition [7]: 76.5%

CCCCCCCCOc1ccccc1C(=O)Nc1ccc(C(=O)OCC[N+](C)(CC)CC)cc1
inhibition [7]: 74.2%
inhibition (Homo sapiens): Active

CN(C)c1ccc(O)c2c1C[C@H]1C[C@H]3[C@H](N(C)C)C(O)=C(C(N)=O)C(=O)[C@@]3(O)C(O)=C1C2=O
inhibition [7]: 58.9%

CCCCCCCCCCCC[N+](C)(C)CCOc1ccccc1
inhibition [7]: 56.5%

CN(C)c1cc(NC(=O)CNC(C)(C)C)c(O)c2c1C[C@H]1C[C@H]3[C@H](N(C)C)C(O)=C(C(N)=O)C(=O)[C@@]3(O)C(O)=C1C2=O
inhibition [7]: 69.3%

Cc1cc(Nc2ncc(Cl)c(Nc3ccccc3S(=O)(=O)C(C)C)n2)c(OC(C)C)cc1C1CCNCC1
inhibition [7]: 88.2%
inhibition (Homo sapiens): Active

CN(C)[C@@H]1C(O)=C(C(N)=O)C(=O)[C@@]2(O)C(O)=C3C(=O)c4c(O)cccc4[C@@](C)(O)[C@H]3C[C@@H]12
inhibition [7]: 56.4%

Source: ChEMBL document CHEMBL5634094, “Micafungin: A promising inhibitor of UBE2M in cancer cell growth suppression” (Eur J Med Chem, 2023)
